Assay [1] has as its system LNCaP (PSMA+). The format is cell-based. The note with it: for IC50: LNCaP (PSMA+); for S (selectivity): IC50 PC3 (PSMA−) / IC50 LNCaP (PSMA+); for TI for LNCaP: IC50 of free toxin / IC50 of conjugate. The text has this:
(§1) Note: A direct comparison of all DUPA conjugates with amanitin was not performed in one experiment. The amanitin curve shown in the graph is derived from the direct comparison between HDP 30.2284 and amanitin.

Assay [2] relates to PC3 (PSMA−). The format is cell-based.
Text: as §1

The target of assay [3] is RNA-polymerase II (Homo sapiens, UniProt P24928). Particulars: complex between amanitin and RNA-polymerase II; cited from earlier work.

The structures appear in SMILES notation.

Usually IC50 stands for the midpoint of a concentration-inhibition curve. As a reminder, the Kd is a measure of binding affinity in units of concentration.

As for `CC[C@H](C)[C@@H]1NC(=O)CNC(=O)[C@@H]2Cc3c([nH]c4cc(O)ccc34)[S+]([O-])C[C@@H](NC(=O)CNC1=O)C(=O)N[C@@H](CC(N)=O)C(=O)N1C[C@H](O)C[C@H]1C(=O)N[C@@H]([C@@H](C)[C@@H](O)CO)C(=O)N2` (stereo in doubt) [α-amanitin, reference compound], the values for the IC50 in assay [1] and in assay [2] were 479 nM and 213 nM, respectively. The Kd in assay [3] was 3 nM.
For the compound `CC[C@H](C)[C@@H]1NC(=O)CNC(=O)[C@H]2Cc3c([nH]c4cc(OCc5ccc(NC(=O)[C@H](C)NC(=O)[C@@H](NC(=O)CCCCCN6C(=O)CC(SC[C@H](NC(=O)[C@H](Cc7ccccc7)NC(=O)[C@H](Cc7ccccc7)NC(=O)CCCCCCCNC(=O)CCC(NC(=O)NC(CCC(=O)O)C(=O)O)C(=O)O)C(=O)O)C6=O)C(C)C)cc5)ccc34)[S+]([O-])C[C@H](NC(=O)CNC1=O)C(=O)N[C@@H](CC(N)=O)C(=O)N1C[C@H](O)C[C@H]1C(=O)N[C@@H]([C@@H](C)[C@@H](O)CO)C(=O)N2` (stereo partly drawn) [HDP 30.2284, 6′-O-[6-(3-(((DUPA-Aoc-Phe-Phe-Cys)-sulfanyl)-2,5-dioxopyrrolidin-1-yl)-hexanamido)-Val-Ala-PAB]-α-amantin], in assay [1], the “S (selectivity)” value is recorded as 1819, the “TI for LNCaP” value stood at 555 and the IC50 is 0.863 nM. Besides, in assay [2], the IC50 turned out to be 1570 nM.
For `CC[C@H](C)[C@@H]1NC(=O)CNC(=O)[C@@H]2Cc3c([nH]c4cc(OCCCCCCN5C(=O)CC(SC[C@H](NC(=O)[C@H](Cc6ccccc6)NC(=O)[C@H](Cc6ccccc6)NC(=O)CCCCCCCNC(=O)CC[C@H](NC(=O)N[C@@H](CCC(=O)O)C(=O)O)C(=O)O)C(=O)O)C5=O)ccc34)[S@+]([O-])C[C@H](NC(=O)CNC1=O)C(=O)N[C@@H](CC(N)=O)C(=O)N1C[C@H](O)C[C@H]1C(=O)N[C@@H]([C@@H](C)[C@@H](O)CO)C(=O)N2` (stereo partly drawn) [HDP 30.2301, 6′-O-[6-(((DUPA-Aoc-Phe-Phe-Cys)-sulfanyl)-2,5-dioxopyrrolidin-1-yl)-hexyl]-α-amantin] the same measures were 249, 78, 6.11 nM and 1520 nM.
Take `CC[C@H](C)[C@@H]1NC(=O)CNC(=O)[C@@H]2Cc3c([nH]c4cc(OCc5ccc(NC(=O)[C@H](C)NC(=O)[C@@H](NC(=O)CN6C(=O)C(SCCOCCOCCOCCOCCOCCOCCOCCNC(=O)[C@H](Cc7ccccc7)NC(=O)[C@H](Cc7ccccc7)NC(=O)CCCCCCCNC(=O)CC[C@H](NC(=O)N[C@@H](CCC(=O)O)C(=O)O)C(=O)O)=C(SCCOCCOCCOCCOCCOCCOCCOCCNC(=O)[C@H](Cc7ccccc7)NC(=O)[C@H](Cc7ccccc7)NC(=O)CCCCCCCNC(=O)CC[C@H](NC(=O)N[C@@H](CCC(=O)O)C(=O)O)C(=O)O)C6=O)C(C)C)cc5)ccc34)[S@+]([O-])C[C@H](NC(=O)CNC1=O)C(=O)N[C@@H](CC(N)=O)C(=O)N1C[C@H](O)C[C@H]1C(=O)N[C@@H]([C@@H](C)[C@@H](O)CO)C(=O)N2` [HDP 30.2490, 6′-O-[(3,4-(((DUPA-Aoc-Phe-Phe-PEGn)-sulfanyl)-2,5-dioxopyrrolidin-1-yl)-propanamido)-Val-Ala-PAB]-α-amantin]: in assay [1], the “S (selectivity)” value worked out at 52.5 and the “TI for LNCaP” value is reported as 62.
With `CC[C@H](C)[C@@H]1NC(=O)CNC(=O)C2Cc3c([nH]c4cc(OCc5ccc(NC(=O)[C@H](C)NC(=O)[C@@H](NC(=O)CSC[C@@H](NC(=O)[C@H](Cc6ccccc6)NC(=O)[C@H](Cc6ccccc6)NC(=O)CCCCCCCNC(=O)CCC(NC(=O)NC(CCC(=O)O)C(=O)O)C(=O)O)C(=O)O)C(C)C)cc5)ccc34)[S+]([O-])CC(NC(=O)CNC1=O)C(=O)N[C@@H](CC(N)=O)C(=O)N1CC(O)C[C@H]1C(=O)N[C@@H]([C@@H](C)[C@@H](O)CO)C(=O)N2` (stereo partly drawn) [HDP 30.2515, 6′-O-[2-((DUPA-Aoc-Phe-Phe-Cys)-sulfanyl)-acetamido-Val-Ala-PAB]-α-amantin], the IC50 in assay [1] came out at 4.51 nM; in assay [2], 663 nM.
As for `CC[C@H](C)[C@@H]1NC(=O)CNC(=O)[C@@H]2Cc3c([nH]c4cc(OCc5ccc(NC(=O)[C@H](C)NC(=O)[C@@H](NC(=O)CCN6C(=O)CC(SC[C@H](NC(=O)[C@H](Cc7ccccc7)NC(=O)[C@H](Cc7ccccc7)NC(=O)CCCCCCCNC(=O)CC[C@H](NC(=O)N[C@@H](CCC(=O)O)C(=O)O)C(=O)O)C(=O)O)C6=O)C(C)C)cc5)ccc34)[S@+]([O-])C[C@H](NC(=O)CNC1=O)C(=O)N[C@@H](CC(N)=O)C(=O)N1C[C@H](O)C[C@H]1C(=O)N[C@@H]([C@@H](C)[C@@H](O)CO)C(=O)N2` (stereo partly drawn) [HDP 30.2535, 6′-O-[3-(3-(((DUPA-Aoc-Phe-Phe-Cys)-sulfanyl)-2,5-dioxopyrrolidin-1-yl)-propanamido)-Val-Ala-PAB]-α-amantin], in assay [1], the “S (selectivity)” value was 191 and the “TI for LNCaP” value is given as 253.
For `CC[C@H](C)[C@@H]1NC(=O)CNC(=O)[C@@H]2Cc3c([nH]c4cc(OCc5ccc(NC(=O)[C@H](CCCNC(N)=O)NC(=O)[C@@H](NC(=O)CCCCCN6C(=O)CC(SC[C@H](NC(=O)[C@H](Cc7ccccc7)NC(=O)[C@H](Cc7ccccc7)NC(=O)CCCCCCCNC(=O)CC[C@H](NC(=O)N[C@@H](CCC(=O)O)C(=O)O)C(=O)O)C(=O)O)C6=O)C(C)C)cc5)ccc34)[S@+]([O-])C[C@H](NC(=O)CNC1=O)C(=O)N[C@@H](CC(N)=O)C(=O)N1C[C@H](O)C[C@H]1C(=O)N[C@@H]([C@@H](C)[C@@H](O)CO)C(=O)N2` (stereo partly drawn) [HDP 30.2537, 6′-O-[6-(3-(((DUPA-Aoc-Phe-Phe-Cys)-sulfanyl)-2,5-dioxopyrrolidin-1-yl)-hexanamido)-Val-Cit-PAI3]-α-amantin] the same measures were 148 and 371.
The like results for `CC[C@H](C)[C@@H]1NC(=O)CNC(=O)[C@@H]2Cc3c([nH]c4cc(OCCC(C)SSC[C@H](NC(=O)[C@H](Cc5ccccc5)NC(=O)[C@H](Cc5ccccc5)NC(=O)CCCCCCCNC(=O)CC[C@H](NC(=O)N[C@@H](CCC(=O)O)C(=O)O)C(=O)O)C(=O)O)ccc34)[S@+]([O-])C[C@H](NC(=O)CNC1=O)C(=O)N[C@@H](CC(N)=O)C(=O)N1C[C@H](O)C[C@H]1C(=O)N[C@@H]([C@@H](C)[C@@H](O)CO)C(=O)N2` (stereo partly drawn) [HDP 30.2589] were, in that order, 22.5 and 53.

These data come from patent publication US11583569B2, “PSMA-targeting amanitin conjugates” (Heidelberg Pharma Research GmbH, priority 2017, dated 2023).
